Results from patent US8575175B2, “Therapeutic agent for chronic renal failure” (Toray Industries, Inc., priority 2008, dated 2013).
Counter-ions that a name gives are not always drawn.

Key:
[1] = test system: rats suffering from chronic renal failure; assay: Pharmacological effect in rats suffering from chronic renal failure: renal function, hematocrit, hemoglobin; type: in vivo, WKY rats; settings: for Hematocrit value / Hemoglobin content: oral twice a day from week 2
Protocol: Rabbit anti-rat glomerular basement membrane antiserum (14-fold diluted, 3 mL/kg) was intravenously injected to WKY rats of 8 weeks old, to induce glomerulonephritis. […] Further, creatinine clearance, which is used as an alternative to glomerular filtration rate (GFR), was 2.63±0.07 mL/min. (N=3) in the normal group, and 1.22±0.04 mL/min. (N=21) in the nephritis-induced group. That is, creatinine clearance in the nephritis-induced group decreased to not more than 50% with respect to that of the normal group, and therefore it was confirmed that the nephritis-induced group developed chronic renal failure whose primary disease was glomerulonephritis. Thus, the time of establishment of the chronic renal failure was defined as 2 weeks after the induction of nephritis. […] This stage was the phase in which introduction of dialysis is considered in human, and corresponded to the most serious phase in chronic renal failure in the conservative stage.
Thus, 2 weeks after the induction of nephritis, based on the serum creatinine value, the rats suffering from chronic renal failure were grouped into the normal group (with neither induction of nephritis nor administration, n=4), the control group (administration of only a vehicle, n=7), the group to be treated with the sodium salt of Compound 1 (administration of 30 mg/kg twice a day, n=7) and the group to be treated with beraprost sodium (administration of 0.3 mg/kg twice a day, n=7), after which oral administration of the drugs were begun, followed by daily administration thereof. As the vehicle for the drugs, 0.25% sodium carboxymethylcellulose solution was used.
(§1) From 2 weeks after the induction of nephritis when the chronic renal failure was established, until 6 weeks after the induction of nephritis, urine collection and blood collection were carried out as appropriate, and the serum creatinine value, BUN and creatinine clearance were measured for each group to evaluate renal function. Further, the hematocrit, the hemoglobin content, and the SOD activity of the renal tissue, which are closely linked to the diseased state of chronic renal failure, were measured, and the expression level of mRNA of an organic anion transporter OAT-3 was quantified. The SOD activity was measured with the SOD assay kit WST (Dojindo Laboratories), and the expression level of mRNA of OAT-3 was quantified using LightCycler FastStart DNA Master SYBR Green I (Roche).
Six weeks after the induction of nephritis when the chronic renal failure in the conservative stage progressed to a serious phase in the control group, a statistical analysis was carried out. In terms of statistical difference, homoscedasticity was tested by the Bartlett's test between the control group and the respective drug-administered groups. In homoscedastic cases, the parametric Dunnett's test was carried out between the respective drug-administered groups and the control group, while in heteroscedastic cases, the nonparametric Dunnett's test was carried out therebetween, using a significance level of less than 5%.

SOD = SOD activity in the renal tissue of rats suffering from chronic renal failure; type: in vivo, WKY rats; settings: 6 weeks after induction of nephritis, oral twice a day from week 2, mean ± SE, n=7
Protocol: (§2) Rabbit anti-rat glomerular basement membrane antiserum (14-fold diluted, 3 mL/kg) was intravenously injected to WKY rats of 8 weeks old, to induce glomerulonephritis. […] Further, creatinine clearance, which is used as an alternative to glomerular filtration rate (GFR), was 2.63±0.07 mL/min. (N=3) in the normal group, and 1.22±0.04 mL/min. (N=21) in the nephritis-induced group. That is, creatinine clearance in the nephritis-induced group decreased to not more than 50% with respect to that of the normal group, and therefore it was confirmed that the nephritis-induced group developed chronic renal failure whose primary disease was glomerulonephritis. Thus, the time of establishment of the chronic renal failure was defined as 2 weeks after the induction of nephritis. […]
as §1, with “The SOD activity was measured with the SOD assay kit WST (Dojindo Laboratories), and the expression level of mRNA of OAT-3 was quantified using LightCycler FastStart DNA Master SYBR Green I (Roche).” left out

OAT-3 = assay: Expression level of mRNA of OAT-3 in the renal cortex of rats suffering from chronic renal failure; type: in vivo, WKY rats; settings: 6 weeks after induction of nephritis, oral twice a day from week 2, mean ± SE, n=7, normal group 1.00 ± 0.06
Protocol: as §2
as §1, with “The SOD activity was measured with the SOD assay kit WST (Dojindo Laboratories), and the expression level of mRNA of OAT-3 was quantified using LightCycler FastStart DNA Master SYBR Green I (Roche).” left out

[2] = test system: ADP-induced rat platelet aggregation; assay: Platelet aggregation inhibition action in rat (ADP-induced aggregation after oral administration); type: in vivo; settings: stimulation with 10 μM ADP; oral: sodium salt of Compound 1 30 mg/kg (blood at 1 hour), beraprost sodium 0.3 mg/kg (0.5 hour); n=6
Protocol: To determine the dose with which the PGI2-receptor agonistic activity is equivalent between the sodium salt of Compound 1 and beraprost sodium, the platelet aggregation inhibition action which is the major pharmacological action of PGI2-receptor agonists was used as an index for comparison. The sodium salt of Compound 1 (30 mg/kg) or beraprost sodium (0.3 mg/kg) was orally administered to rats fasted for 1 day, and blood was collected therefrom at the time when the plasma level of each compound became maximum, that is, 1 hour after the administration of the sodium salt of Compound 1 (Non-patent Document: J Pharmacol Exp Ther 322:1181-1188 2007) or 0.5 hour after the administration of beraprost sodium (Non-patent Document: Xenobiotic Metabolism and Disposition 6:713-725 1989), followed by measuring ADP-induced rat platelet aggregation. In the both groups, the experiment was carried out with n=6. The sodium salt of Compound 1, which was one of the PGI2-receptor agonists used herein, was synthesized by treating a carboxylic acid with sodium hydroxide, which carboxylic acid was synthesized according to the method described in Patent Document 4.

[3] = after oral administration to rats; from cited literature; cited from earlier work
[4] = Plasma level of Compound 1 and bioavailability after administration of Compound 1 and Compound 2 to rats; type: in vivo; settings: rat, 5 mg/kg oral vs Compound 1 1 mg/kg intravenous, Compound 1 measured in plasma, corrected for molecular weight, mean ± SE, n=3
Protocol: Compound 1 or Compound 2 was orally administered to rats in an amount of 5 mg/kg, and Compound 1 was intravenously administered in an amount of 1 mg/kg, after which the concentration of Compound 1 in plasma was measured. The experiment was carried out with n=3 in each of the both groups. […] Thus, it was shown that Compound 2 can be used in a manner similar to Compound 1. Compound 1 and Compound 2 used in this experiment was synthesized in accordance with the method described in Patent Document 4.

[5] = 6 weeks after induction of nephritis, oral twice a day from week 2 (Compound 1 Na salt 30 mg/kg, beraprost sodium 0.3 mg/kg), mean ± SE, n=7
[6] = 6 weeks after induction of nephritis, mean ± SE, n=7
[7] = until 6 weeks after the induction of nephritis, 30 mg/kg oral twice a day

SMILES	Creatinine clearance ([1]; 2 weeks after induction of nephritis, at the beginning of the administration (baseline of the treated group)) [mL/min]	BUN [1, 5] [mg/dL]	Creatinine clearance [1, 5] [mL/min]	Serum creatinine value [1, 5] [mg/dL]	Creatinine clearance ([1]; 6 weeks after induction of nephritis, oral twice a day from week 2 (Compound 1 Na salt 30 mg/kg, beraprost sodium 0.3 mg/kg), mean ± SE, n=7, listed as sodium salt of Compound 1) [mL/min]	Hematocrit value [1, 6] [%]	Hemoglobin content [1, 6] [g/dL]	BUN, course compared to control group (FIG. 2) [1, 7]	creatinine clearance, course compared to control group (FIG. 3) [1, 7]	serum creatinine value, course compared to control group (FIG. 1) [1, 7]	SOD activity (%, taking the activity in the normal group as 100%) (SOD) [%]	Expression level of mRNA of OAT-3 (ratio to that of GAPD) (OAT-3)	rate of suppression of rat platelet aggregation [2] [%]	time when the plasma level became maximum [3] [h]	bioavailability [4] [%]
CC(C)N(CCCCOCC(=O)O)c1cnc(-c2ccccc2)c(-c2ccccc2)n1 [Sodium salt of Compound 1]	1.21 ± 0.06	26.8 ± 2.49	1.48 ± 0.11	0.47 ± 0.04	1.48 ± 0.11	37.1 ± 0.71	13.7 ± 0.28	kept low compared to that in the control group	kept high compared to that in the control group	kept low compared to that in the control group	83.6 ± 2.52	0.42 ± 0.05	47.0±7.9	1	–
CC#CCC(C)[C@H](O)/C=C/[C@@H]1[C@H]2c3cccc(CCCC(=O)O)c3O[C@H]2C[C@H]1O (mixture of isomers) [Beraprost sodium, reference compound]	–	42.1 ± 6.41	0.77 ± 0.13	0.85 ± 0.12	–	33.9 ± 0.97	12.3 ± 0.28	–	–	–	67.9 ± 5.45	0.24 ± 0.04	64.2±8.3	0.5	–
CC(C)N(CCCCOCC(=O)O)c1cnc(-c2ccccc2)c(-c2ccccc2)n1 [Compound 1]	–	–	–	–	–	–	–	–	–	–	–	–	–	–	43.3 ± 2.6
